Patent publication US7951834B2, “Angiotensin I-converting enzyme (ACE) inhibitors” (University of Cape Town, priority 2005, dated 2011)

How the values were obtained:
[1] = molecular target: tACEdelta36NJ (tACE, C domain) (Homo sapiens, UniProt P12821); test: ACE inhibitory activity, fluorometric determination of phthaldialdehyde-derivatised His-Leu, tACE; type: biochemical; settings: for inhibitory activity for ACE as compared to lisinopril: in words; for Ki: substrate ZPHL, enzyme + inhibitor incubated 3 hours at ambient temperature
tACEdelta36NJ (tACE, C domain), sequence (P12821 642-1230 limits assumed): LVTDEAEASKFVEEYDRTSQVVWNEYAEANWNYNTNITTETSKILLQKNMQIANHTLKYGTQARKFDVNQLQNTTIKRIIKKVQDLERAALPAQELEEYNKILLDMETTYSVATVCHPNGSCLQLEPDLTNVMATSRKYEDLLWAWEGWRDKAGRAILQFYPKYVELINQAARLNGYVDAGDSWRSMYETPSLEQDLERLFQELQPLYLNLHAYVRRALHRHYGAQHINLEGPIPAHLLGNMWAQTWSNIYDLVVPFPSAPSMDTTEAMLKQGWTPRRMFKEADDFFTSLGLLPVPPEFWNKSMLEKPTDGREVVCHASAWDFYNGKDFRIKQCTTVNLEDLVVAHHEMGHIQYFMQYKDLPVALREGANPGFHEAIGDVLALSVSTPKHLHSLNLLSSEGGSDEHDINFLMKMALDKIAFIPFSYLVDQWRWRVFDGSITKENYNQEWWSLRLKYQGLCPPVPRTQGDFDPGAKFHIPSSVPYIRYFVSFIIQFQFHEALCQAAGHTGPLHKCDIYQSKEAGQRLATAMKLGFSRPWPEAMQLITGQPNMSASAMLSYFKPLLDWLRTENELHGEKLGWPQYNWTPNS
Procedure: (§1) The ACE inhibitory activity (as tabulated in Table 1) was measured by the fluorometric determination of phthaldialdehyde-derivatised histidylleucine, a product of the enzyme reaction according to the method of Almquist et al.,^12 with some modifications. For tACEdelta36NJ and N-domain inhibition using Z-Phe-His-Leu as substrate:—10 μL of 0.05 mg/mL enzyme+120 μL inhibitor was incubated at ambient temperature for 3 hours. Inhibitor concentrations ranged from 2.0 μM to 500 μM. A 3.0 μL aliquot of this was assayed for enzyme activity using 30 μL of 1.0 mM […]. This was incubated (in triplicate) for 30 mins at 37° C. and stopped with 180 μL solution of 0.28N NaOH. To this alkalized mixture 12 μL of o-phthaldialdehyde (150 mM) was added and the mixture incubated for another 10 mins at room temperature. Reactions were stopped by adding 26 μL of 3N HCl. Fluorescence was measured at Ex=360 nm; Em=486 nm, 5×5 slit width along with a His-Leu standard calibration curve fluorometer: Varian Cary Eclipse plate reader.
(§2) All assays included enzyme incubated with buffer in the absence of inhibitor (i.e. 0 μM inhibitor concentration).

[2] = molecular target: ACE N-domain (Homo sapiens, UniProt P12821); test: ACE inhibitory activity, fluorometric determination of phthaldialdehyde-derivatised His-Leu, N-domain; type: biochemical; settings: substrate ZPHL; enzyme + inhibitor incubated 3 hours at ambient temperature; read-out: Ki (N-dom) ZPHL
ACE N-domain, sequence (P12821 40-624 limits assumed): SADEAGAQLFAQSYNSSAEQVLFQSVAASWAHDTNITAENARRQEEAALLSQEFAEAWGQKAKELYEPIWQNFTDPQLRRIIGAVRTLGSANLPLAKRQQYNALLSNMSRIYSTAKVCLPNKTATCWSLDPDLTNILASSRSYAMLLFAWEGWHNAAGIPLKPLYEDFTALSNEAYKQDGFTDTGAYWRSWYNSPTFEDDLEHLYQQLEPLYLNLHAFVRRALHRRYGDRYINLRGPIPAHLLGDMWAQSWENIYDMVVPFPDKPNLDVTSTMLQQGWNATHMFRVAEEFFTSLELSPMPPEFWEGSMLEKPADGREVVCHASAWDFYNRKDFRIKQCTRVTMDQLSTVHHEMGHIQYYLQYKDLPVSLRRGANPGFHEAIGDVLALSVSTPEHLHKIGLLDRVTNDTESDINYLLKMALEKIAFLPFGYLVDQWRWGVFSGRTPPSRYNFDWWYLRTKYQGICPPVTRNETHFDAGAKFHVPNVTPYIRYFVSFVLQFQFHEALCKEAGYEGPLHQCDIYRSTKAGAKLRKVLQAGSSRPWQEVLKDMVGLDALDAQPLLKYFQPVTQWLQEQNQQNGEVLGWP
Procedure: as §1, §2

| Compound | inhibitory activity for ACE as compared to lisinopril [1] | Ki [1] [µM] | C-domain specific (fold) ([1]; tACE (C domain) versus N-domain) | Ki [2] [µM] | melting point [°C] | domain selectivity (in words) ([1]; N-domain versus tACE (C domain)) |
| --- | --- | --- | --- | --- | --- | --- |
| O=C(N[C@@H](Cc1ccccc1)C(=O)CCC(=O)N1CCC[C@H]1C(=O)O)c1ccccc1 [Compound 5a, (5S)-5-[(N-benzoyl)amino]-4-oxo-6-phenyl-hexanoyl-L-proline] | weak inhibitory activity |  |  |  |  |  |
| O=C(CCC(=O)[C@H](Cc1ccccc1)NC(=O)c1ccccc1)N[C@@H](Cc1c[nH]c2ccccc12)C(=O)O [Compound 5b, (5S)-5-[(N-benzoyl)amino]-4-oxo-6-phenyl-hexanoyl-L-tryptophan] | weak inhibitory activity | 0.8 | 245 | 196 | 171 to 173 |  |
| O=C(CCC(=O)[C@H](Cc1ccccc1)NC(=O)c1ccccc1)N[C@@H](Cc1ccccc1)C(=O)O [Compound 5c, (5S)-5-[(N-benzoyl)amino]-4-oxo-6-phenyl-hexanoyl-L-phenylalanine] | weak inhibitory activity | 23.7 |  | 84.3 |  |  |

Second part, led by results:

| inhibitory activity for ACE as compared to lisinopril [1] | Ki [1] [µM] | C-domain specific (fold) ([1]; tACE (C domain) versus N-domain) | Ki [2] [µM] | melting point [°C] | Compound | domain selectivity (in words) ([1]; N-domain versus tACE (C domain)) |
| --- | --- | --- | --- | --- | --- | --- |
| weak inhibitory activity | 144 |  | 33.6 |  | CC(C)(C)OC(=O)N[C@@H](Cc1ccccc1)C(=O)CCC(=O)N1CCC[C@H]1C(=O)O [Compound 11a, (5S)-6-phenyl-5-[(tert-butyloxycarbonyl)-amino]-4-oxo-hexanoyl-L-proline] | inhibits N-domain more effectively than tACE |
|  |  |  |  | 141 to 143 | CC(C)(C)OC(=O)N[C@@H](Cc1ccccc1)C(=O)CCC(=O)N[C@@H](Cc1c[nH]c2ccccc12)C(=O)O [Compound 11b, (5S)-6-phenyl-5-[(tert-butyloxycarbonyl)-amino]-4-oxo-hexanoyl-L-tryptophan] |  |
